Source: PubChem BioAssay AID977618 (Broad Institute, 2014)
Several values for one entry are separate records, joined by “and”; a condition that tells them apart may be missing. Equal values may be shown once. Activity calls are given as the source filed them.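 The calls were made as follows: active = compounds lowering the cell ATP signal with fitted AC50 at most twice the top tested dose; inconclusive = flat fit between -70 and -30, or a poor fit; inactive = the rest.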

Columns and labels:
[1] = HEK293T cell cytotoxicity, dose response, cytotoxicity control, CellTiter-Glo luminescence, dry powder, set 16 (AID 977618); details: HEK293T viability, CellTiter-Glo ATP luminescence, 72 h; at 30 µM (top of the series)
[2] = system: HEK293T viability, CellTiter-Glo ATP luminescence, 72 h; assay: as above

SMILES | activity change, negative = cytotoxicity [1] | AC50 [2]
Cc1cnc(NC(=O)c2cc(S(=O)(=O)N(C)C)ccc2N2CCCC2)s1 | 8.71% (inactive) and 10.8% (inactive) | –
CN(C)S(=O)(=O)c1ccc(N2CCCC2)c(C(=O)Nc2ccccc2)c1 | -5.37% (inactive) | –
CN(C)C(=O)c1cc(S(=O)(=O)N(C)C)ccc1N1CCCC1 | 0.495% (inactive) | –
CN(C)S(=O)(=O)c1ccc(N2CCCC2)c(C(=O)Nc2ccc(Br)cc2)c1 | -1.97% (inactive) | –
Cc1cnc(NC(=O)c2cc(S(=O)(=O)N3CCCCC3)ccc2N2CCCC2)s1 | 1.32% (inactive) | –
COc1ccc2nc(NC(=O)c3cc(S(=O)(=O)N(C)C)ccc3N3CCCC3)sc2c1 | -3.18% (inactive) | –
Cc1cnc(NC(=O)c2cc(S(=O)(=O)N(C)C)ccc2N2CCC2)s1 | -5.02% (inactive) | –
Cc1cnc(NC(=O)c2cc(S(=O)(=O)N(C)c3ccccc3)ccc2N2CCCC2)s1 | 1.78% (inactive) | –
Cc1cnc(NC(=O)c2cc(S(=O)(=O)NCc3ccccc3)ccc2N2CCCC2)s1 | -10.3% (inactive) | –
COc1ccccc1NC(=O)c1cc(S(=O)(=O)N(C)C)ccc1N1CCCC1 | -2.97% (inactive) | –
Cc1cnc(NC(=O)c2cccc(S(=O)(=O)N(C)C)c2)s1 | -1.48% (inactive) | –
Cc1cnc(NC(=O)c2cc(S(=O)(=O)N(C)C)ccc2C2CCCC2)s1 | -1.05% (inactive) | –
CN(C)S(=O)(=O)c1ccc(N2CCCC2)c(C(=O)Nc2ccccc2F)c1 | -17.6% (inactive) | –
Cc1cnc(NC(=O)c2cc(S(=O)(=O)N(C)C)ccc2N2CCNCC2)s1 | -1.97% (inactive) | –
Cc1nnc(NC(=O)c2cc(S(=O)(=O)N(C)C)ccc2N2CCCC2)s1 | -7.43% (inactive) | –
CN(C)S(=O)(=O)c1ccc(N2CCCC2)c(C(=O)Nc2ccncc2)c1 | -8.58% (inactive) | –
CN(C)S(=O)(=O)c1ccc(N2CCCC2)c(C(=O)Nc2nccs2)c1 | -6.06% (inactive) | –
Cc1nc(NC(=O)c2cc(S(=O)(=O)N(C)C)ccc2N2CCCC2)n[nH]1 | -1.85% (inactive) | –
CN(C)S(=O)(=O)c1ccc(N2CCCC2)c(C(=O)Nc2nc3ccccc3s2)c1 | 8.82% (inactive) | –
Cc1cnc(NC(=O)c2cc(S(=O)(=O)N3CCCC3)ccc2N2CCCC2)s1 | 16.8% (inactive) | –

SMILES | activity change, negative = cytotoxicity [1] | AC50 [2]
COc1cccc2sc(NC(=O)c3cc(S(=O)(=O)N(C)C)ccc3N3CCCC3)nc12 | -4.26% (inactive) | –
COc1ccc2sc(NC(=O)c3cc(S(=O)(=O)N(C)C)ccc3N3CCCC3)nc2c1 | 1.94% (inactive) | –
Cc1cnc(NC(=O)c2cc(S(=O)(=O)N3CCNCC3)ccc2N2CCCC2)s1 | -12.1% (inactive) | –
COc1ccc(NC(=O)c2cc(S(=O)(=O)N(C)C)ccc2N2CCCC2)cc1 | -3.02% (inactive) | –
CN(C)S(=O)(=O)c1ccc(N2CCCC2)c(C(=O)Nc2cccc(F)c2)c1 | -5.2% (inactive) | –
CCN(CC)c1ccc(S(=O)(=O)N(C)C)cc1C(=O)Nc1ncc(C)s1 | -18.6% (inactive) | –
CN(C)S(=O)(=O)c1ccc(N2CCCC2)c(C(=O)Nc2cccnc2)c1 | 3.26% (inactive) | –
Cc1ccc(NC(=O)c2cc(S(=O)(=O)N(C)C)ccc2N2CCCC2)cc1 | -11.3% (inactive) | –
Cc1cnc(NC(=O)c2cc(S(=O)(=O)N(C)C)ccc2N2CCCCC2)s1 | -9.94% (inactive) | –
Cc1cnc(NC(=O)c2cc(S(=O)(=O)N(CC(C)C)CC(C)C)ccc2N2CCCC2)s1 | – | > 60 µM (inactive)
Cc1cnc(NC(=O)c2cc(S(=O)(=O)N(C)C)ccc2N(C)C)s1 | -10% (inactive) | –
CN(C)S(=O)(=O)c1ccc(N2CCCC2)c(C(=O)Nc2ccccc2Cl)c1 | -6.21% (inactive) | –
CN(C)S(=O)(=O)c1ccc(N2CCCC2)c(C(=O)N2CCOCC2)c1 | -15.1% (inactive) | –
Cc1csc(NC(=O)c2cc(S(=O)(=O)N(C)C)ccc2N2CCCC2)n1 | -4.9% (inactive) | –
CN(C)S(=O)(=O)c1ccc(N2CCCC2)c(C(=O)NC2CCCCC2)c1 | -11.1% (inactive) | –
CN(C)CCCN(Cc1cc2ccccc2[nH]c1=O)C(=O)NCc1ccccc1 | -7.51% (inactive) | –
CN(C)CCCN(Cc1cc2ccccc2[nH]c1=O)C(=O)Nc1ccccc1 | -4.05% (inactive) | –
Cc1cnc(NC(=O)c2cc(S(=O)(=O)N3CCOCC3)ccc2N2CCCC2)s1 | 9.35% (inactive) | –
Cc1ccccc1NC(=O)c1cc(S(=O)(=O)N(C)C)ccc1N1CCCC1 | -9.68% (inactive) | –
CCN(CC)S(=O)(=O)c1ccc(N2CCCC2)c(C(=O)Nc2ncc(C)s2)c1 | -2.95% (inactive) | –
